{"source": "patent US9144573B2", "about": "“Prostaglandin transporter inhibitors” (Albert Einstein College of Medicine of Yeshiva University, priority 2006, dated 2015)", "key": {"MDCK cells": {"test_system": "MDCK cells", "format": "cell-based, Canine", "method": "We used TGBz T34 to further isolate the efflux process of PGE2. […] The intracellular concentrations of PGE2 at different time points were calculated by dividing the total amount of intracellular PGE2 on the dish by the total volume of cells, based on cell number counts and published individual cell volume (Schneider et al., 2000; Hill et al., 2004). Since the addition of inhibitor involved removing extracellular tracer PGE2, the intracellular PGE2 concentration at the point of inhibitor addition approximates the outwardly-directed PGE2 gradient.\nThis linearity held true even when the intracellular PGE2 concentration was extended to almost 800 nM, i.e. 10 fold the Km of PGT for PGE2 (data not shown). From the slope of the relationship, we generated a range of permeability coefficients for PGE2 efflux of 1.2 to 5.3×10^−6 cm/sec, based on the range of MDCK cell volumes reported in the literature (Schneider et al., 2000; Hill et al., 2004). […] The ratio of the influx-to-efflux permeability coefficients was thus in the range 2.7 to 117."}, "[1]": {"biological_target": "T1, prostaglandin transporter (PGT) (Rattus norvegicus, UniProt Q00910)", "T1 construct": "GFP; expressed in transfected cells", "assay": "PGE2 uptake by MDCK cells stably expressing PGT", "format": "cell-based", "settings": "for inhibition at 5 µM: MDCK, read-out: % Inhib. at 5 μM", "method": "MDCK or 3T3 cells were seeded at 15-20% confluence on 24-well plates. The day on which the cells were seeded was considered day 1. PGE2 uptake experiments were conducted on day 4. All of the PGE2 uptake experiments were conducted at room temperature. On day 4, cells were washed twice with Waymouth buffer (135 mM NaCl, 13 mM H-Hepes, 13 mM Na-Hepes, 2.5 mM CaCl2, 1.2 mM MgCl2, 0.8 mM MgSO4, 5 mM KCl, and 28 mM D-glucose). Then 200 μL of Waymouth buffer containing [^3H]PGE2 was added to each well. At the designated time, the uptake of [^3H]PGE2 was stopped by aspiration of uptake buffer; this was followed by immediate washing twice with 500 μL of chilled Waymouth buffer. Cells were then lysed with 100 μL lysis buffer containing 0.25% SDS and 0.05 N NaOH. 1.5 mL of scintillation solution was added to each well, and intracellular [^3H]PGE2 was counted by MicroBeta Counter.\nFor preliminary screening of the compounds, 25 μL of Waymouth buffer containing small organic compounds were added to each well; this was immediately followed by the addition of 175 μL of Waymouth buffer containing [^3H]PGE2. In each well, the total volume of uptake medium was 200 μL. Organic compounds were first dissolved in DMSO and then diluted in Waymouth buffer. The percent inhibition of [^3H]PGE2 uptake by compounds was calculated as [(uptakevehicle−uptakeinhibitor)÷(uptakevehicle)]×100.\nThe initial velocities at various initial extracellular concentrations of PGE2 were determined from the PGE2 uptake in the first 2 minutes; these were linear over the time course of PGE2 uptake. Ki values were obtained by curve fitting the reciprocal of initial velocities of PGE2 uptake versus the reciprocal of extracellular PGE2 concentrations at various concentrations of the inhibitors. At low PGE2 concentrations, the extracellular concentrations were taken as ^3H labeled PGE2, which has a specific activity of 500 μCi/mol. At high concentrations of PGE2, a mixture of ^3H labeled and unlabeled PGE2 was made to a final specific activity of 25 μCi/mol."}, "[2]": {"settings": "Table 1, PGE2 uptake, MDCK cells expressing PGT"}}, "note": "“Also recorded” adds a separate entry of the source.", "data": [{"molecule": "CCCCC[C@H](O)/C=C/[C@H]1[C@H](O)CC(=O)[C@@H]1C/C=C\\CCCC(=O)O", "note": "[PGE2, prostaglandin E2]", "values": [{"measurement": "permeability coefficient for PGE2 efflux", "setting": "MDCK cells", "result": "1.2-5.3 ×10^−6 cm/sec"}, {"measurement": "permeability coefficient for PGE2 influx (by simple diffusion)", "setting": "MDCK cells", "result": 4.5, "unit": "nm/s"}, {"measurement": "ratio of the influx-to-efflux permeability coefficients", "setting": "MDCK cells", "result": "2.7-117"}]}, {"molecule": "CCCNc1nc(NCCOCCOCCNC(=O)c2ccccc2)nc(Nc2ccc(C(=O)NCCOCCOCCN=[N+]=[N-])cc2)n1", "note": "[T03A]", "values": [{"measurement": "inhibition at 5 µM", "setting": "[1]", "result": 54, "unit": "%"}]}, {"molecule": "CCCCCCCNc1nc(NCCOCCOCCNC(=O)c2ccccc2)nc(Nc2ccc(C(=O)NCCOCCOCCN=[N+]=[N-])cc2)n1", "note": "[T07A]", "values": [{"measurement": "inhibition at 5 µM", "setting": "[1]", "result": 74, "unit": "%"}]}, {"molecule": "CC(C)CCNc1nc(NCCOCCOCCNC(=O)c2ccccc2)nc(Nc2ccc(C(=O)NCCOCCOCCN=[N+]=[N-])cc2)n1", "note": "[T08A]", "values": [{"measurement": "inhibition at 5 µM", "setting": "[1]", "result": 64, "unit": "%"}]}, {"molecule": "[N-]=[N+]=NCCOCCOCCNC(=O)c1ccc(Nc2nc(NCCOCCOCCNC(=O)c3ccccc3)nc(NCc3ccccc3)n2)cc1", "note": "[T14A]", "values": [{"measurement": "inhibition at 5 µM", "setting": "[1]", "result": 56, "unit": "%"}]}, {"molecule": "[N-]=[N+]=NCCOCCOCCNC(=O)c1ccc(Nc2nc(NCCOCCOCCNC(=O)c3ccccc3)nc(NCCc3ccc(F)cc3)n2)cc1", "note": "[T18A]", "values": [{"measurement": "inhibition at 5 µM", "setting": "[1]", "result": 76, "unit": "%"}]}, {"molecule": "[N-]=[N+]=NCCOCCOCCNC(=O)c1ccc(Nc2nc(NCCCc3ccccc3)nc(NCCOCCOCCNC(=O)c3ccccc3)n2)cc1", "note": "[T21A]", "values": [{"measurement": "inhibition at 5 µM", "setting": "[1]", "result": 72, "unit": "%"}]}, {"molecule": "[N-]=[N+]=NCCOCCOCCNC(=O)c1ccc(Nc2nc(NCCCCc3ccccc3)nc(NCCOCCOCCNC(=O)c3ccccc3)n2)cc1", "note": "[T22A]", "values": [{"measurement": "inhibition at 5 µM", "setting": "[1]", "result": 72, "unit": "%"}]}, {"molecule": "[N-]=[N+]=NCCOCCOCCNC(=O)c1ccc(Nc2nc(NCCOCCOCCNC(=O)c3ccccc3)nc(Nc3ccc(F)cc3)n2)cc1", "note": "[T25A]", "values": [{"measurement": "inhibition at 5 µM", "setting": "[1]", "result": 82, "unit": "%"}, {"measurement": "Ki", "setting": "[1]; Table 2", "result": 3.9, "unit": "µM"}]}, {"molecule": "[N-]=[N+]=NCCOCCOCCNC(=O)c1ccc(Nc2nc(NCCOCCOCCNC(=O)c3ccccc3)nc(Nc3ccccc3)n2)cc1", "note": "[T28A]", "values": [{"measurement": "inhibition at 5 µM", "setting": "[1]", "result": 84, "unit": "%"}, {"measurement": "Ki", "setting": "[1]; Table 2", "result": 3.6, "unit": "µM"}]}, {"molecule": "[N-]=[N+]=NCCOCCOCCNC(=O)c1ccc(Nc2nc(NCCOCCOCCNC(=O)c3ccccc3)nc(NCCc3ccccc3)n2)cc1", "note": "[T34]", "values": [{"measurement": "Ki", "setting": "[1]; 0 min pre-incubation, separate experiments", "result": 1.22, "unit": "µM"}, {"measurement": "intracellular PGE2 after addition of inhibitor at peak level", "setting": "[1]; 25 μM added at 9 minutes", "result": "rapid depletion of intracellular PGE2"}, {"measurement": "time for intracellular PGE2 to fall to baseline", "setting": "[1]; 25 μM added at peak (9 minutes)", "result": "≤ 5", "unit": "min"}, {"measurement": "inhibition of PGE2 transport by PGT", "setting": "[1]; 25 μM, added at the beginning of uptake, listed as TGBz T34", "result": "overshoot phenomenon completely disappeared; also recorded: full inhibition"}, {"measurement": "Ki", "setting": "[1]; 10 min pre-incubation", "result": 1.63, "unit": "µM"}, {"measurement": "Ki", "setting": "[1]; 20 min pre-incubation", "result": 1.41, "unit": "µM"}, {"measurement": "inhibition at 5 µM", "setting": "[1]", "result": 84, "unit": "%"}, {"measurement": "Ki", "setting": "[1]; [2]", "result": "3.7 ± 0.2", "unit": "µM"}, {"measurement": "Ki", "setting": "[1]; Table 2", "result": 3.7, "unit": "µM"}, {"measurement": "mode of inhibition", "setting": "[1]; double reciprocal analysis", "result": "competitive inhibitor"}, {"measurement": "Ki", "setting": "[1]; double-reciprocal plots, PGE2 varied at 0, 3, 6 μM inhibitor", "result": "3.7 ± 0.2", "unit": "µM"}]}, {"molecule": "[N-]=[N+]=NCCOCCOCCNC(=O)c1ccc(Nc2nc(NCCOCCOCCNC(=O)c3ccccc3)nc(NCCc3ccc(O)cc3)n2)cc1", "note": "[T41]", "values": [{"measurement": "inhibition at 5 µM", "setting": "[1]", "result": 65, "unit": "%"}, {"measurement": "Ki", "setting": "[1]; [2]", "result": "6.2 ± 0.7", "unit": "µM"}, {"measurement": "Ki", "setting": "[1]; Table 2", "result": 6.2, "unit": "µM"}]}]}
